Like-named read-outs stand apart in the source and are kept apart here.
Experiments:
[1] = test system: HIV-1 (IIIB); assay: Antiviral assay in MT-4 cells (HIV MT-4 antiviral assay); assay type: cell-based; details: Human immunodeficiency virus 1, IIIB, MT4, 120 h, HIV-1 (IIIB) in MT-4 cells, 5 days incubation
Summary of the method: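 Read-out is CellTiter-Glo chemiluminescence after 5-day culture at 37° C, giving protection of MT-4 cells from HIV-1 IIIB cytopathicity. Compounds tested in 1:3 dilution series in complete RPMI; controls were no drug, mock infection and 5 μM AZT.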

[2] = Cytotoxicity assay in MT-4 cells; assay type: cell-based, human; details: human, uninfected MT-4 cells, 5 days incubation; read-out: CC50
Summary of the method: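 For cytotoxicity, uninfected MT-4 cells were incubated with compounds 5 days at 37 °C, with 10 μM puromycin marking base cytotoxicity. Parallel plates used HIV-1 IIIB-infected (1:250 stock dilution) or mock cells with 5 μM AZT and no-drug controls. Read-out: CellTiter-Glo chemiluminescence.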

[3] = test system: pLai RLuc reporter virus; assay: microbe, parasite or virus in culture; assay type: cell-based, HIV; details: Human immunodeficiency virus 1, 72 h
Summary of the method: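 Read-out is Renilla luciferase after 72 h at 37 °C in MT-4 cells infected 2 h beforehand with pLai RLuc reporter virus; compounds diluted 1:3.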

[4] = read-out: Antiviral Serum Shift RLuc 50% HS, HS/CCM (RPMI media, 10% FBS, 50% HS, 1% P/S), 72-h incubation
[5] = read-out: Antiviral Serum Shift RLuc CCM, CCM (RPMI media, 10% FBS, 1% P/S), 72-h incubation

Row | Structure (SMILES) | EC50 ([1]; read-out: EC50) [nM] | CC50 at 5 days [2] [nM] | EC50 [3, 4] [nM] | EC50 [3, 5] [nM] | EC50 [1] [nM]
1 | O=C(NCc1ccc(F)cc1F)c1cn2c(c(O)c1=O)C(=O)N1Cc3cc(F)ccc3C[C@H]2C1 [Example 146, (6S)—N-(2,4-difluorobenzyl)-10-fluoro-1-hydroxy-2,14-dioxo-2,7,12,14-tetrahydro-6H-6,13-methanobenzo[f]pyrido[1,2-a][1,4]diazonine-3-carboxamide] | 1.76 | > 50000 | 1.12 | 0.227 | 
2 | O=C(NCc1c(F)cc(F)cc1F)c1cn2c(c(O)c1=O)C(=O)N1CC=CC[C@H]2C1 [Example 101, (7S)-12-hydroxy-1,11-dioxo-N-(2,4,6-trifluorobenzyl)-1,6,7,11-tetrahydro-3H-2,7-methanopyrido[1,2-a][1,4]diazonine-10-carboxamide] | 1.52 | 19500 | 1.62 | 0.22 | 
3 | O=C(NCc1c(F)cc(F)cc1F)c1cn2c(c(O)c1=O)C(=O)N1C[C@@H]2CCC[C@@H]1C(F)F [Example 131, (3R, 7S)-3-(difluoromethyl)-12-hydroxy-1,11-dioxo-N-(2,4,6-trifluorobenzyl)-1,4,5,6,7,11-hexahydro-3H-2,7-methanopyrido[1,2-a][1,4]diazonine-10-carboxamide] | 1.68 | 10200 | 11 | 0.25 | 
4 | O=C(NCc1c(F)cc(F)cc1F)c1cn2c(c(O)c1=O)C(=O)N1CCc3ccc(Br)cc3[C@@H]2C1 (single isomer, unassigned) [Example 122-2] | 14.4 | 4770 | 298 | 3.77 | 
5 | O=C(NCc1c(F)cc(F)cc1F)c1cn2c(c(O)c1=O)C(=O)N1CCOC[C@@H]2C1 [Example 19, (7S)-12-hydroxy-1,11-dioxo-N-(2,4,6-trifluorobenzyl)-1,3,4,6,7,11-hexahydro-2,7-methanopyrido[1,2-d][1,4,7]oxadiazonine-10-carboxamide] | 4 | > 50000 | 4.35 | 1.21 | 
6 | O=C(NCc1cccc(Cl)c1F)c1cn2c(c(O)c1=O)C(=O)N1Cc3cc(F)c(F)cc3C[C@@H]2C1 [Example 143-1, (6R)—N-(3-chloro-2-fluorobenzyl)-9,10-difluoro-1-hydroxy-2,14-dioxo-2,7,12,14-tetrahydro-6H-6,13-methanobenzo[f]pyrido[1,2-a][1,4]diazonine-3-carboxamide] | 22.7 | > 50000 | 132 | 4.75 | 
7 | O=C(NCc1ccc(F)cc1F)c1cn2c(c(O)c1=O)C(=O)N1C[C@@H]2CCC(F)(F)C1 [Example 4-2, (7S)-N-(2,4-difluorobenzyl)-4,4-difluoro-12-hydroxy-1,11-dioxo-1,4,5,6,7,11-hexahydro-3H-2,7-methanopyrido[1,2-a][1,4]diazonine-10-carboxamide] | 4.8 | 10700 | 4.36 | 1.11 | 
8 | O=C(NCc1c(F)cc(F)cc1F)c1cn2c(c(O)c1=O)C(=O)N1CCC[C@@H](Cl)[C@H]2C1 (single isomer, unassigned) [Example 72-2] | 4.27 | 12100 | 34 | 0.267 | 
9 | O=C(NCc1c(F)cc(F)cc1F)c1cn2c(c(O)c1=O)C(=O)N1CC[C@@H](F)C[C@@H]2C1 [Example 73-2, (5R, 7R)-5-fluoro-12-hydroxy-1,11-dioxo-N-(2,4,6-trifluorobenzyl)-1,4,5,6,7,11-hexahydro-3H-2,7-methanopyrido[1,2-a][1,4]diazonine-10-carboxamide] | 1.82 | 23100 | 0.919 | 0.283 | 
10 | O=C(NCc1ccc(F)cc1F)c1cn2c(c(O)c1=O)C(=O)N1CCCC[C@@H]2C1 (single isomer, unassigned) [Example 25-1] | 1.3 | 11500 | 36.6 | 0.42 | 
11 | CC[C@]1(OC)CCCN2C[C@H]1n1cc(C(=O)NCc3c(F)cc(F)cc3F)c(=O)c(O)c1C2=O [Example 100, (6S,7R)-6-ethyl-12-hydroxy-6-methoxy-1,11-dioxo-N-(2,4,6-trifluorobenzyl)-1,4,5,6,7,11-hexahydro-3H-2,7-methanopyrido[1,2-a][1,4]diazonine-10-carboxamide] | 1.58 | 9440 | 1.77 | 0.631 | 
12 | O=C(NCc1ccc(F)cc1F)c1cn2c(c(O)c1=O)C(=O)N1CCC=C[C@H]2C1 [Example 169, (7S)—N-(2,4-difluorobenzyl)-12-hydroxy-1,11-dioxo-1,4,7,11-tetrahydro-3H-2,7-methanopyrido[1,2-a][1,4]diazonine-10-carboxamide] | 1.4 | 11800 | 2.89 | 0.322 | 
13 | O=C(NCc1ccc(F)cc1F)c1cn2c(c(O)c1=O)C(=O)N1C[C@@H]2CC=C[C@@H]1CF [Example 188] |  | 12200 | 3.48 | 0.421 | 1.19
14 | O=C(NCc1c(F)cc(F)cc1F)c1cn2c(c(O)c1=O)C(=O)N1Cc3cc(F)c(F)cc3C[C@@H]2C1 (single isomer, unassigned) [Example 159] | 3.52 | > 43600 | 2.56 | 0.976 | 
15 | O=C(NCc1ccc(F)c(Cl)c1F)c1cn2c(c(O)c1=O)C(=O)N1C[C@@H]2CCc2ccc(F)cc21 [Example 90-2, (12S)—N-(3-chloro-2,4-difluorobenzyl)-3-fluoro-7-hydroxy-6,8-dioxo-6,8,13,14-tetrahydro-12H-5,12-methanobenzo[e]pyrido[1,2-a][1,4]diazonine-9-carboxamide] | 2.42 | > 20800 | 1.22 | 0.361 | 
16 | C[C@@H]1CC[C@@H](C)N2C[C@H]1n1cc(C(=O)NCc3c(F)cc(F)cc3F)c(=O)c(O)c1C2=O [Example 151-2, (3R,6R,7S)-12-hydroxy-3,6-dimethyl-1,11-dioxo-N-(2,4,6-trifluorobenzyl)-1,4,5,6,7,11-hexahydro-3H-2,7-methanopyrido[1,2-a][1,4]diazonine-10-carboxamide] | 1.75 | 7200 | 7.22 | 0.44 | 
17 | O=C(NCc1c(F)cc(F)cc1F)c1cn2c(c(O)c1=O)C(=O)N1C[C@H]3CC[C@H](C3)[C@H]2C1 [Example 41-1, (4S,7R,8S)-13-hydroxy-1,12-dioxo-N-(2,4,6-trifluorobenzyl)-1,3,4,5,6,7,8,12-octahydro-2,8:4,7-dimethanopyrido[1,2-a][1,4]diazecine-11-carboxamide] | 1.6 | 15600 | 6.64 | 0.335 | 
18 | C[C@@]12Cc3cc(F)c(F)cc3CN(C1)C(=O)c1c(O)c(=O)c(C(=O)NCc3c(F)cc(F)cc3F)cn12 (single isomer, unassigned) [Example 191-1] | 2.61 | 11600 | 2.69 | 0.611 | 
19 | C[C@@]1(F)CCCN2C[C@@H]1n1cc(C(=O)NCc3ccc(F)cc3F)c(=O)c(O)c1C2=O [Example 60-3, (6R, 7S)—N-(2,4-difluorobenzyl)-6-fluoro-12-hydroxy-6-methyl-1,11-dioxo-1,4,5,6,7,11-hexahydro-3H-2,7-methanopyrido[1,2-a][1,4]diazonine-10-carboxamide] | 2.23 | 14800 | 14.8 | 0.376 | 

— patent US12227520B2 (priority 2019, dated 2025)
